# Target: TRKA (Homo sapiens (Human), UniProt P04629)
# Experiment: Isolated TRK enzyme assay (HTRF KinEASE-TK), TRKA
# Type: biochemical
# Conditions: read-out: Trka enzyme (IC50)
# Chain of TRKA (P04629 441-796): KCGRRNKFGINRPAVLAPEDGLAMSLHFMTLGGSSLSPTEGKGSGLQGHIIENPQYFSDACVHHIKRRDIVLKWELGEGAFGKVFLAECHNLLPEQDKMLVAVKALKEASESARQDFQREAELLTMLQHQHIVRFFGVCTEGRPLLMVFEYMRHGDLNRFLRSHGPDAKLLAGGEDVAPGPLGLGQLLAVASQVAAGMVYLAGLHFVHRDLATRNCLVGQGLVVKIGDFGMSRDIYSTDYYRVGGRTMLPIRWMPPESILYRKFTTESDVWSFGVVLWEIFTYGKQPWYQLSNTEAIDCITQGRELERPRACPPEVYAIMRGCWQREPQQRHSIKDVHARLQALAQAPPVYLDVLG
structure (smiles),measurement,value
"Cc1cc(C(F)(F)F)nn1CC(=O)Nc1cc(C(=O)c2cn(C(C)C)c3ncncc23)c[nH]c1=O [Example 587, 2-[5-methyl-3-(trifluoromethyl)-1H-pyrazol-1-yl]-N-(2-oxo-5-{[7-(propan-2-yl)-7H-pyrrolo[2,3-d]pyrimidin-5-yl]carbonyl}-1,2-dihydropyridin-3-yl)acetamide]",IC50,20.5 nM
"Cc1ccc2ccc(CC(=O)Nc3cncc(C(=O)c4cn(C)c5ncncc45)c3)cc2n1 [Example 178, N-{5-[(7-methyl-7H-pyrrolo[2,3-d]pyrimidin-5-yl)carbonyl]pyridin-3-yl}-2-(2-methylquinolin-7-yl)acetamide]",IC50,3100 nM
"CC(C)n1cc(C(=O)c2cncc(NC(=O)Cn3cc(C(F)(F)F)nn3)c2)c2cnc(N)nc21 [Example 240, N-{5-[(2-amino-7-isopropyl-7H-pyrrolo[2,3-d]pyrimidin-5-yl)carbonyl]pyridin-3-yl}-2-[4-(trifluoromethyl)-1H-1,2,3-triazol-1-yl]acetamide]",IC50,19.2 nM
"CCn1cc(C(=O)Nc2cncc(C(=O)c3cn(C(C)C)c4ncncc34)c2)cn1 [Example 433, 1-Ethyl-1H-pyrazole-4-carboxylic acid [5-(7-isopropyl-7H-pyrrolo[2,3-d]pyrimidine-5-carbonyl)-pyridin-3-yl]-amide]",IC50,246 nM
"CC(C)n1cc(C(=O)c2cncc(NC(=O)Cc3ccn(-c4ccc(O)cc4)c3)c2)c2cncnc21 [Example 374, 2-[1-(4-Hydroxy-phenyl)-1H-pyrrol-3-yl]-N-[5-(7-isopropyl-7H-pyrrolo[2,3-d]pyrimidine-5-carbonyl)-pyridin-3-yl]-acetamide]",IC50,224 nM
"Cn1cc(C(=O)c2cncc(NC(=O)Cc3ccc(NS(=O)(=O)C(F)(F)F)cc3)c2)c2cncnc21 [Example 331, N-{5-[(7-methyl-7H-pyrrolo[2,3-d]pyrimidin-5-yl)carbonyl]pyridin-3-yl}-2-(4-{[(trifluoromethyl)sulfonyl]amino}phenyl)acetamide]",IC50,9810 nM
"O=C(Cc1ccc(Cl)cc1Cl)Nc1cncc(C(=O)c2cn(C(CO)CO)c3ncncc23)c1 [Example 278, 2-(2,4-dichlorophenyl)-N-[5-({7-[2-hydroxy-1-(hydroxymethyl)ethyl]-7H-pyrrolo[2,3-d]pyrimidin-5-yl}carbonyl)pyridin-3-yl]acetamide]",IC50,54.3 nM
"COCC(C)(C)n1cc(C(=O)c2cncc(NC(=O)Cn3cc(C(F)(F)F)nn3)c2)c2cnc(N)nc21 [Example 550, N-{5-[2-Amino-7-(2-methoxy-1,1-dimethyl-ethyl)-7H-pyrrolo[2,3-d]pyrimidine-5-carbonyl]-pyridin-3-yl}-2-(4-trifluoromethyl-[1,2,3]triazol-1-yl)-acetamide]",IC50,16.1 nM
"Cc1cc(C(F)(F)F)nn1CC(=O)Nc1cncc(C(=O)c2cn(C(C)(CO)CO)c3ncncc23)c1 [Example 234, N-[5-({7-[2-hydroxy-1-(hydroxymethyl)-1-methylethyl]-7H-pyrrolo[2,3-d]pyrimidin-5-yl}carbonyl)pyridin-3-yl]-2-[5-methyl-3-(trifluoromethyl)-1H-pyrazol-1-yl]acetamide]",IC50,84.9 nM
"CC1(n2cc(C(=O)c3cncc(NC(=O)c4cccc(OC(F)(F)F)c4)c3)c3cncnc32)COC1 [Example 575, N-{5-[7-(3-Methyl-oxetan-3-yl)-7H-pyrrolo[2,3-d]pyrimidine-5-carbonyl]-pyridin-3-yl}-3-trifluoromethoxy-benzamide]",IC50,3.09 nM
"O=C(Cc1cn2cc(Cl)ccc2n1)Nc1cncc(C(=O)c2cn(C3COC3)c3ncncc23)c1 [Example 223, 2-(6-chloroimidazo[1,2-a]pyridin-2-yl)-N-{5-[(7-oxetan-3-yl-7H-pyrrolo[2,3-d]pyrimidin-5-yl)carbonyl]pyridin-3-yl}acetamide]",IC50,1660 nM
"Cn1cc(C(=O)c2cncc(NC(=O)Cc3c(F)cccc3Cl)c2)c2cncnc21 [Example 180, 2-(2-chloro-6-fluorophenyl)-N-{5-[(7-methyl-7H-pyrrolo[2,3-d]pyrimidin-5-yl)carbonyl]pyridin-3-yl}acetamide]",IC50,3100 nM
"Cc1ccc(CC(=O)Nc2cncc(C(=O)c3cn(C)c4ncncc34)c2)cc1 [Example 186, 2-(4-methylphenyl)-N-{5-[(7-methyl-7H-pyrrolo[2,3-d]pyrimidin-5-yl)carbonyl]pyridin-3-yl}acetamide]",IC50,719 nM
"CC(CO)n1cc(C(=O)c2cncc(NC(=O)Cc3ccc4cccnc4c3)c2)c2cnc(N)nc21 (single isomer, unassigned) [Example 216, N-(5-{[2-amino-7-(2-hydroxy-1-methylethyl)-7H-pyrrolo[2,3-d]pyrimidin-5-yl]carbonyl}pyridin-3-yl)-2-quinolin-7-ylacetamide]",IC50,31.6 nM
"Cn1cc(C(=O)c2cncc(NC(=O)Cc3cc(F)c(F)cc3F)c2)c2cncnc21 [Example 184, N-{5-[(7-methyl-7H-pyrrolo[2,3-d]pyrimidin-5-yl)carbonyl]pyridin-3-yl}-2-(2,4,5-trifluorophenyl)acetamide]",IC50,579 nM
"CC(C)n1cc(C(=O)c2cncc(NC(=O)c3[nH]nc4ccccc34)c2)c2cncnc21 [Example 507, 2H-Indazole-3-carboxylic acid [5-(7-isopropyl-7H-pyrrolo[2,3-d]pyrimidine-5-carbonyl)-pyridin-3-yl]-amide]",IC50,5.45 nM
"Cc1nn(C)cc1CC(=O)Nc1cncc(C(=O)c2cn(C(C)(C)C)c3ncncc23)c1 [Example 201, N-{5-[(7-tert-butyl-7H-pyrrolo[2,3-d]pyrimidin-5-yl)carbonyl]pyridin-3-yl}-2-(1,3-dimethyl-1H-pyrazol-4-yl)acetamide]",IC50,482 nM
"CC(C)n1cc(C(=O)c2cncc(NC(=O)Cn3cc(C4(O)CCCC4)nn3)c2)c2cncnc21 [Example 363, 2-[4-(1-Hydroxy-cyclopentyl)-1,2,3-triazol-1-yl]-N-[5-(7-isopropyl-7H-pyrrolo[2,3-d]pyrimidine-5-carbonyl)-pyridin-3-yl]-acetamide]",IC50,1030 nM
"CC(C)n1cc(C(=O)c2cncc(NC(=O)c3cnccc3C(F)(F)F)c2)c2cncnc21 [Example 451, N-[5-(7-Isopropyl-7H-pyrrolo[2,3-d]pyrimidine-5-carbonyl)-pyridin-3-yl]-4-trifluoromethyl-nicotinamide]",IC50,7170 nM
"Cc1cc(C(=O)Nc2cncc(C(=O)c3cn(C(C)C)c4ncncc34)c2)nc(C)n1 [Example 479, 2,6-Dimethyl-pyrimidine-4-carboxylic acid [5-(7-isopropyl-7H-pyrrolo[2,3-d]pyrimidine-5-carbonyl)-pyridin-3-yl]-amide]",IC50,2160 nM
"Nc1ncc2c(C(=O)c3cncc(NC(=O)Cn4ccc(C(F)(F)F)n4)c3)cn(C34CC(C3)C4)c2n1 [Example 580, N-[5-(2-Amino-7-bicyclo[1.1.1]pent-1-yl-7H-pyrrolo[2,3-d]pyrimidine-5-carbonyl)-pyridin-3-yl]-2-(3-trifluoromethyl-pyrazol-1-yl)-acetamide]",IC50,0.825 nM
"CC(C)n1cc(C(=O)c2cncc(NC(=O)c3scnc3C(F)(F)F)c2)c2cncnc21 [Example 402, 4-Trifluoromethyl-thiazole-5-carboxylic acid [5-(7-isopropyl-7H-pyrrolo[2,3-d]pyrimidine-5-carbonyl)-pyridin-3-yl]-amide]",IC50,9800 nM
"COc1cc(OC)nc(C(=O)Nc2cncc(C(=O)c3cn(C(C)C)c4ncncc34)c2)n1 [Example 463, 4,6-Dimethoxy-pyrimidine-2-carboxylic acid [5-(7-isopropyl-7H-pyrrolo[2,3-d]pyrimidine-5-carbonyl)-pyridin-3-yl]-amide]",IC50,186 nM
"CC(C)n1cc(C(=O)c2cncc(NC(=O)Cc3ccc(OC4CC4)cc3)c2)c2cncnc21 [Example 73, 2-[4-(cyclopropyloxy)phenyl]-N-{5-[(7-isopropyl-7H-pyrrolo[2,3-d]pyrimidin-5-yl)carbonyl]pyridin-3-yl}acetamide]",IC50,283 nM
"Cn1cc(CC(=O)Nc2cncc(C(=O)c3cn(C(C)(C)C)c4ncncc34)c2)c(C2CC2)n1 [Example 203, N-{5-[(7-tert-butyl-7H-pyrrolo[2,3-d]pyrimidin-5-yl)carbonyl]pyridin-3-yl}-2-(3-cyclopropyl-1-methyl-1H-pyrazol-4-yl)acetamide]",IC50,316 nM
"CC(C)(CO)n1cc(C(=O)c2cncc(NC(=O)Cc3ccc(C#N)cc3)c2)c2cncnc21 [Example 225, 2-(4-cyanophenyl)-N-(5-{[7-(2-hydroxy-1,1-dimethylethyl)-7H-pyrrolo[2,3-d]pyrimidin-5-yl]carbonyl}pyridin-3-yl)acetamide]",IC50,27.7 nM
"CC(C)n1cc(C(=O)c2cncc(NC(=O)Nc3cc(C4CC4)nn3-c3cnn(C)c3)c2)c2cncnc21 [Example 526, 1-(3-Cyclopropyl-1′-methyl-1′H-[1,4′]bipyrazolyl-5-yl)-3-[5-(7-isopropyl-7H-pyrrolo[2,3-d]pyrimidine-5-carbonyl)-pyridin-3-yl]-urea]",IC50,1.51 nM
"Cn1cc(C(=O)c2cncc(NC(=O)Cc3ccc(F)c(F)c3)c2)c2cncnc21 [Example 195, 2-(3,4-difluorophenyl)-N-{5-[(7-methyl-7H-pyrrolo[2,3-d]pyrimidin-5-yl)carbonyl]yridine-3-yl}acetamide]",IC50,835 nM
"CC(C)n1cc(C(=O)c2cncc(NC(=O)Cn3ccnc3-c3ccccc3)c2)c2cncnc21 [Example 370, N-[5-(7-Isopropyl-7H-pyrrolo[2,3-d]pyrimidine-5-carbonyl)-pyridin-3-yl]-2-(2-phenyl-imidazol-1-yl)-acetamide]",IC50,3540 nM
"CC(C)n1cc(C(=O)c2cncc(NC(=O)c3nncc4ccccc34)c2)c2cncnc21 [Example 470, Phthalazine-1-carboxylic acid [5-(7-isopropyl-7H-pyrrolo[2,3-d]pyrimidine-5-carbonyl)-pyridin-3-yl]-amide]",IC50,166 nM
"C[C@@H](CO)n1cc(C(=O)c2cncc(NC(=O)Cc3nc4ccccc4[nH]3)c2)c2cncnc21 [Example 533, 2-(1H-Benzoimidazol-2-yl)-N-{5-[7-((S)-2-hydroxy-1-methyl-ethyl)-7H-pyrrolo[2,3-d]pyrimidine-5-carbonyl]-pyridin-3-yl}-acetamide]",IC50,31.3 nM
"Cc1ccc(CC(=O)Nc2cncc(C(=O)c3cn(C(C)C)c4ncncc34)c2)cn1 [Example 154, N-{5-[(7-isopropyl-7H-pyrrolo[2,3-d]pyrimidin-5-yl)carbonyl]pyridin-3-yl}-2-(6-methylpyridin-3-yl)acetamide]",IC50,94.1 nM

# Reference: US8846698B2, “Pyrrolo[2,3-d]pyrimidine tropomysin-related kinase inhibitors” (Pfizer Limited, priority 2011, dated 2014)
